The series deals with rodent carcinogenicity bioassays, tumor incidence. Kind of series: CCRIS carcinogenicity studies. A digest of the protocol: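 NCI-built, expert-reviewed records of carcinogenicity and related test outcomes (mutagenicity, tumor promotion/inhibition) compiled from published and report sources, historical span 1985-2011, not updated.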

Calls of active or inactive are those of the source. The rule behind the calls is not given here.

As to `Cc1c2ccccc2cc2c1ccc1ccccc12`, the carcinogen call (Species: MOUSE, Strain/Sex: ALBINO/FEMALE, Route: DERMAL, Dose: 70 UG IN 0.025 ML ACETONE 2/WK FOR 20 WK, Tumor Site: Type of Lesion: INTEGUMENTARY SYSTEM (SKIN): CARCINOMA) was “active; positive”; the carcinogen call (Species: MOUSE, Strain/Sex: ALBINO/FEMALE, Route: SUBCUTANEOUS, Dose: 0.1 ML OF 1 MG IN TRICAPRYLIN ONCE, Tumor Site: Type of Lesion: INJECTION SITE: SARCOMA) was “active; positive”; the carcinogen call (Species: MOUSE, Strain/Sex: ALBINO/FEMALE, Route: SUBCUTANEOUS, Dose: 0.25, 1.0 MG IN 0.1 ML TRICAPRYLIN ONCE, Tumor Site: Type of Lesion: INJECTION SITE: SARCOMA) was “active; positive”; the carcinogen call (Species: MOUSE, Strain/Sex: C57BL/MALE,FEMALE, Route: SUBCUTANEOUS, Dose: 1 MG IN 0.1 ML ARACHIS OIL 1/WK FOR 10 WK, Tumor Site: Type of Lesion: INJECTION SITE) was “active; positive”; the carcinogen call (Species: RAT, Strain/Sex: ALBINO/MALE, Route: SUBCUTANEOUS, Dose: 2.0 MG IN 0.25 ML TRICAPRYLIN ONCE, Tumor Site: Type of Lesion: INJECTION SITE: SARCOMA) was “active; positive”; the carcinogen call (Species: RAT, Strain/Sex: F344/MALE,FEMALE, Route: SUBCUTANEOUS, Dose: 2 MG IN 0.2 ML PARAFFIN SOLN (TOTAL DOSE 4 MG/RAT), Tumor Site: Type of Lesion: INJECTION SITE: FIBROSARCOMA) is “active; positive”. The carcinogen call reads like this: (Species: RAT, Strain/Sex: HOLTZMAN/MALE, Route: SUBCUTANEOUS, Dose: 0.25 ML OF 2 MG IN TRICAPRYLIN ONCE, Tumor Site: Type of Lesion: INJECTION SITE: SARCOMA) “active; positive”; (Species: RAT, Strain/Sex: LONG-EVANS/MALE, Route: INTRAMUSCULAR, Dose: 2.5 MG IN 0.5 ML SESAME OIL ONCE, Tumor Site: Type of Lesion: INJECTION SITE: SARCOMA) “active; positive”.

`CC(Cl)CCCC(Cl)CCCC(Cl)CCCC(Cl)CCCC(Cl)CCCC(Cl)CCCl` (configuration not stated): the carcinogen call (Species: MOUSE, Strain/Sex: B6C3F1/FEMALE, Route: GAVAGE, Dose: 0, 2500, 5000 MG/KG IN CORN OIL 5 D/WK FOR 103 WK (STUDY DURATION: 103 WK), Dose: 0, 2500, 5000 MG/KG IN CORN OIL 5 D/WK FOR 103 WK (STUDY DURATION: 103 WK), Tumor Site: Type of Lesion: LIVER: HEPATOCELLULAR ADENOMA, HEPATOCELLULAR CARCINOMA) was “equivocal”; the carcinogen call (Species: MOUSE, Strain/Sex: B6C3F1/MALE, Route: GAVAGE, Dose: 0, 2500, 5000 MG/KG IN CORN OIL 5 D/WK FOR 103 WK (STUDY DURATION: 103 WK), Dose: 0, 2500, 5000 MG/KG IN CORN OIL 5 D/WK FOR 103 WK (STUDY DURATION: 103 WK), Tumor Site: Type of Lesion: HEMATOPOIETIC SYSTEM: MALIGNANT LYMPHOMA) is “active; positive”; the carcinogen call (Species: RAT, Strain/Sex: F344/FEMALE, Route: GAVAGE, Dose: 0, 100, 300, 900 MG/KG IN CORN OIL 5 D/WK FOR 103 WK (STUDY DURATION: 103 WK), Dose: 0, 100, 300, 900 MG/KG IN CORN OIL 5 D/WK FOR 103 WK (STUDY DURATION: 103 WK), Tumor Site: Type of Lesion: ADRENAL GLAND: MEDULLARY PHEOCHROMOCYTOMA) is “equivocal”; the carcinogen call (Species: RAT, Strain/Sex: F344/MALE, Route: GAVAGE, Dose: 0, 1875, 3750 MG/KG IN CORN OIL 5 D/WK FOR 103 WK (STUDY DURATION: 103 WK), Dose: 0, 1875, 3750 MG/KG IN CORN OIL 5 D/WK FOR 103 WK (STUDY DURATION: 103 WK)) is “inactive; negative”.

The values are drawn from PubChem BioAssay AID1259411 (Chemical Carcinogenesis Research Information System (CCRIS), 2018).
